Values after ≈ are worked out from the molar mass of the structure shown.
Key:
Format in all cases: cell-based
Salm. typhi 0901 = assay: microbe, parasite or virus in culture; conditions: Salmonella enterica, 18 h; Table III; Salm. typhi 0901
Method: (§1) After sterilisation at 120° C., the pH was 6.8.
(§2) The minimum inhibitory concentrations (M.I.C.) were determined by dilution of the test compounds in this mixture, the concentration ranging from 0.05 to 100 μg/cm^3 in a geometric progression with a factor of 2.
(§3) The inoculation of the dishes was carried out by means of a multiple inoculator with 10^-3 dilutions of 18 hour old broth cultures.
(§4) The dishes were placed in an oven at 37° C. and the readings were taken afer an incubation time of 18 hours. The M.I.C. was taken as the lowest concentration which inhibited a culture.

Esch. coli 111 B4 = assay: M.I.C. in vitro, nutrient agar dilution; conditions: Escherichia coli, 18 h; Table III; Esch. coli 111 B4
Method: as §1, §2, §3, §4

Strepto A 561 = assay: M.I.C. in vitro, nutrient agar dilution; conditions: 18 h; Table III; Strepto A 561
Method: as §1, §2, §3, §4

Klebs. pneum. 10.031 = assay: M.I.C. in vitro, nutrient agar dilution; conditions: 18 h; Table III; Klebs. pneum. 10.031; read-out: M.I.C.
Method: as §1, §2, §3, §4

Pr. vulgaris 12-53 = assay: M.I.C. in vitro, nutrient agar dilution; conditions: Proteus vulgaris, 1253, 18 h; Table III; Pr. vulgaris 12-53; read-out: M.I.C.
Method: as §1, §2, §3, §4

Bord. bronchis. 4.617 = assay: M.I.C. in vitro, nutrient agar dilution; conditions: 18 h; Table III; Bord. bronchis. 4.617; read-out: M.I.C.
Method: as §1, §2, §3, §4

Pr. mirabilis Nig = assay: M.I.C. in vitro, nutrient agar dilution; conditions: Proteus mirabilis, 18 h; Table III; Pr. mirabilis Nig; read-out: M.I.C.
Method: as §1, §2, §3, §4

Staph. 209 P = assay: M.I.C. in vitro, nutrient agar dilution; conditions: 18 h; Table III; Staph. 209 P; read-out: M.I.C.
Method: as §1, §2, §3, §4

Esch. coli 54.127 O.M.S. = assay: M.I.C. in vitro, nutrient agar dilution; conditions: Escherichia coli, 18 h; Table III; Esch. coli 54.127 O.M.S.; read-out: M.I.C.
Method: as §1, §2, §3, §4

Sh. sonnei I.P.S. = assay: M.I.C. in vitro, nutrient agar dilution; conditions: Shigella sonnei, 18 h; Table III; Sh. sonnei I.P.S.; read-out: M.I.C.
Method: as §1, §2, §3, §4

Ps. aeruginosa 72.345 = assay: M.I.C. in vitro, nutrient agar dilution; conditions: Pseudomonas aeruginosa, 18 h; Table III; Pd. aeruginosa 72.345; read-out: M.I.C.
Method: as §1, §2, §3, §4

Arizona 6.211 = assay: M.I.C. in vitro, nutrient agar dilution; conditions: 18 h; Table III; Arizona 6.211; read-out: M.I.C.
Method: as §1, §2, §3, §4

Providentia 0223 = assay: M.I.C. in vitro, nutrient agar dilution; conditions: 18 h; Table III; Providentia 0223; read-out: M.I.C.
Method: as §1, §2, §3, §4

Staph. 9.144 = assay: M.I.C. in vitro, nutrient agar dilution; conditions: 18 h; Table III; Staph. 9.144; read-out: M.I.C.
Method: as §1, §2, §3, §4

Esch. coli 95 I.S.M. = assay: M.I.C. in vitro, nutrient agar dilution; conditions: Escherichia coli, 18 h; Table III; Esch. coli 95 I.S.M.; read-out: M.I.C.
Method: as §1, §2, §3, §4

Strepto D.M. 19 = assay: M.I.C. in vitro, nutrient agar dilution; conditions: 18 h; Table III; Strepto D.M. 19; read-out: M.I.C.
Method: as §1, §2, §3, §4

Pr. morganii A.236 = assay: M.I.C. in vitro, nutrient agar dilution; conditions: Morganella morganii, 18 h; Table III; Pr. morganii A. 236; read-out: M.I.C.
Method: as §1, §2, §3, §4

S. oranienburg 1066 = assay: M.I.C. in vitro, nutrient agar dilution; conditions: Salmonella enterica, 18 h; Table III; S. oranienburg 1066; read-out: M.I.C.
Method: as §1, §2, §3, §4

S. enteritidis Danysz = assay: M.I.C. in vitro, nutrient agar dilution; conditions: Salmonella enterica, 18 h; Table III; S. enteritidis Danysz; read-out: M.I.C.
Method: as §1, §2, §3, §4

Serratia = assay: M.I.C. in vitro, nutrient agar dilution; conditions: 18 h, Table III, read-out: M.I.C.
Method: as §1, §2, §3, §4

B. subtilis = assay: M.I.C. in vitro, nutrient agar dilution; conditions: Bacillus subtilis, 18 h; Table III; B. Subtilis; read-out: M.I.C.
Method: as §1, §2, §3, §4

Ps. aeruginosa A.22 = assay: M.I.C. in vitro, nutrient agar dilution; conditions: Pseudomonas aeruginosa, 18 h; Table III; Ps. aeruginosa A.22; read-out: M.I.C.
Method: as §1, §2, §3, §4

Structure (SMILES) | MIC (Salm. typhi 0901) [µg/mL] | MIC (Esch. coli 111 B4) [µg/mL] | MIC (Strepto A 561) [µg/mL] | MIC (Klebs. pneum. 10.031) [µg/mL] | MIC (Pr. vulgaris 12-53) [µg/mL] | MIC (Bord. bronchis. 4.617) [µg/mL] | MIC (Pr. mirabilis Nig) [µg/mL] | MIC (Staph. 209 P) [µg/mL] | MIC (Esch. coli 54.127 O.M.S.) [µg/mL] | MIC (Sh. sonnei I.P.S.) [µg/mL] | MIC (Ps. aeruginosa 72.345) [µg/mL] | MIC (Arizona 6.211) [µg/mL] | MIC (Providentia 0223) [µg/mL] | MIC (Staph. 9.144) [µg/mL] | MIC (Esch. coli 95 I.S.M.) [µg/mL] | MIC (Strepto D.M. 19) [µg/mL] | MIC (Pr. morganii A.236) [µg/mL] | MIC (S. oranienburg 1066) [µg/mL] | MIC (S. enteritidis Danysz) [µg/mL] | MIC (Serratia) [µg/mL] | also measured
CN1CCN(c2cc3c(cc2F)c(=O)c(C(=O)O)cn3C)CC1 [Example 31, 6-Fluoro-1-methyl-7-(4-methylpiperazinyl)-4-oxo-1,4-dihydro-quinoline-3-carboxylic acid] | 0.4 (≈ 1.25 µM) | 0.8 (≈ 2.51 µM) | 12.5 (≈ 39.1 µM) | 0.8 (≈ 2.51 µM) | 0.2 (≈ 0.626 µM) | 6.25 (≈ 19.6 µM) | 0.4 (≈ 1.25 µM) | 0.4 (≈ 1.25 µM) | 0.8 (≈ 2.51 µM) | 0.2 to 0.4 (≈ 0.626 to 1.25 µM) | 1.6 (≈ 5.01 µM) | 0.2 to 0.4 (≈ 0.626 to 1.25 µM) | 0.8 to 1.6 (≈ 2.51 to 5.01 µM) | 0.4 (≈ 1.25 µM) | 0.1 (≈ 0.313 µM) | 3.1 to 6.2 (≈ 9.71 to 19.4 µM) | 0.2 (≈ 0.626 µM) | 6.2 to 12.5 (≈ 19.4 to 39.1 µM) | 0.4 (≈ 1.25 µM) | 0.2 (≈ 0.626 µM) | MIC (B. subtilis): 0.8 µg/mL (≈ 2.51 µM); MIC (Ps. aeruginosa A.22): 1.6 µg/mL (≈ 5.01 µM)
Cn1cc(C(=O)O)c(=O)c2cc(F)c(N3CCNCC3)cc21 [Example 32, 6-fluoro-1-methyl-4-oxo-7-piperazinyl-1,4-dihydro-quinoline-3-carboxylic acid] | 0.8 (≈ 2.62 µM) | 0.2 (≈ 0.655 µM) | 6.2 to 12.5 (≈ 20.3 to 40.9 µM) | 0.1 (≈ 0.328 µM) | 0.2 (≈ 0.655 µM) | 6.25 (≈ 20.5 µM) | 0.2 (≈ 0.655 µM) | 0.8 (≈ 2.62 µM) | 0.2 (≈ 0.655 µM) | 0.1 (≈ 0.328 µM) | 0.4 to 3.12 (≈ 1.31 to 10.2 µM) | 0.2 (≈ 0.655 µM) | 1.6 (≈ 5.24 µM) | 0.8 (≈ 2.62 µM) | 0.2 (≈ 0.655 µM) | 12.5 (≈ 40.9 µM) | 0.2 (≈ 0.655 µM) | 12.5 (≈ 40.9 µM) | 0.2 (≈ 0.655 µM) | 0.2 (≈ 0.655 µM) | MIC (B. subtilis): 0.4 µg/mL (≈ 1.31 µM); MIC (Ps. aeruginosa A.22): 0.8 to 3.12 µg/mL (≈ 2.62 to 10.2 µM)
C=CCn1cc(C(=O)O)c(=O)c2cc(F)c(N3CCN(C)CC3)cc21 [Example 34, 1-Allyl-6-fluoro-7-(4-methylpiperazinyl)-4-oxo-1,4-dihydro-quinoline-3-carboxylic acid] | 0.1 (≈ 0.29 µM) | 0.4 (≈ 1.16 µM) | 50 (≈ 145 µM) | 0.1 (≈ 0.29 µM) | 0.2 (≈ 0.579 µM) | 0.2 (≈ 0.579 µM) | 0.8 to 1.6 (≈ 2.32 to 4.63 µM) | 0.8 (≈ 2.32 µM) | 0.4 (≈ 1.16 µM) | 0.2 (≈ 0.579 µM) | 3.1 (≈ 8.98 µM) | 0.4 (≈ 1.16 µM) | 12.5 (≈ 36.2 µM) | 1.6 (≈ 4.63 µM) | 0.4 (≈ 1.16 µM) | 6.2 to 12.5 (≈ 18 to 36.2 µM) | 0.05 to 0.2 (≈ 0.145 to 0.579 µM) | 12.5 (≈ 36.2 µM) | 0.4 to 0.8 (≈ 1.16 to 2.32 µM) | 0.05 to 0.4 (≈ 0.145 to 1.16 µM) | MIC (B. subtilis): 0.4 µg/mL (≈ 1.16 µM); MIC (Ps. aeruginosa A.22): 3.1 µg/mL (≈ 8.98 µM)
C=Cn1cc(C(=O)O)c(=O)c2cc(F)c(N3CCN(C)CC3)cc21 [Example 41, 6-Fluoro-7-(4-methyl-piperazinyl)-4-oxo-1-vinyl-1,4-dihydro-quinoline-3-carboxylic acid] | 0.1 (≈ 0.302 µM) | 0.1 (≈ 0.302 µM) | 12.5 (≈ 37.7 µM) | 0.1 (≈ 0.302 µM) | 0.05 (≈ 0.151 µM) | 1.6 (≈ 4.83 µM) | 0.05 (≈ 0.151 µM) | 0.1 (≈ 0.302 µM) | 0.1 (≈ 0.302 µM) | 0.1 (≈ 0.302 µM) | 0.8 (≈ 2.41 µM) | 0.1 (≈ 0.302 µM) | 0.8 (≈ 2.41 µM) | 0.2 (≈ 0.604 µM) | 0.1 (≈ 0.302 µM) | 3.1 (≈ 9.36 µM) | 0.05 (≈ 0.151 µM) | 1.6 (≈ 4.83 µM) | 0.1 (≈ 0.302 µM) | 0.4 (≈ 1.21 µM) | MIC (B. subtilis): 0.1 µg/mL (≈ 0.302 µM); MIC (Ps. aeruginosa A.22): 0.4 µg/mL (≈ 1.21 µM)
C=Cn1cc(C(=O)O)c(=O)c2cc(F)c(N3CCOCC3)cc21 [Example 42, 6-Fluoro-7-morpholino-4-oxo-1-vinyl-1,4-dihydro-quinoline-3-carboxylic acid] | 0.8 (≈ 2.51 µM) | 0.8 (≈ 2.51 µM) | 25 (≈ 78.5 µM) | 0.8 (≈ 2.51 µM) | 0.8 (≈ 2.51 µM) | 12.5 (≈ 39.3 µM) | 1.6 (≈ 5.03 µM) | 0.8 (≈ 2.51 µM) | 0.8 (≈ 2.51 µM) | 0.8 (≈ 2.51 µM) | 6.2 (≈ 19.5 µM) | 0.8 (≈ 2.51 µM) | 25 (≈ 78.5 µM) | 1.6 (≈ 5.03 µM) | 0.8 (≈ 2.51 µM) | 12.5 (≈ 39.3 µM) | 0.2 (≈ 0.628 µM) | 100 (≈ 314 µM) | 1.6 (≈ 5.03 µM) | 3.1 (≈ 9.74 µM) | MIC (B. subtilis): 0.2 µg/mL (≈ 0.628 µM); MIC (Ps. aeruginosa A.22): 3.1 µg/mL (≈ 9.74 µM)

From patent publication US4292317A, “1,4-Dihydro-quinoline-3-carboxylic acid derivatives, process for their preparation and compositions containing them” (Laboratorie Roger Bellon, priority 1977, dated 1981)
